Assay results published in PubChem BioAssay (NCI).
Where “and” joins values, the source holds several entries; their conditions need not be identical. Equal values may be shown once.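 Where inhibition never reached the appropriate level, the endpoint shown equals the highest concentration tested. Otherwise, values were interpolated linearly from a five-concentration, 48-hour dose response in 96-well plates. Here, GI50 denotes the concentration required for 50% inhibition of growth. Definition used: TGI = concentration required for complete inhibition of growth.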

Assays:
Test in all cases: NCI anticancer screen, dose series, 48 h
LXFL 529 NSCLC = test system: LXFL 529 NSCLC
786-0 renal = test system: 786-0 renal
OVCAR-4 ovarian = test system: OVCAR-4 ovarian
K-562 leukemia = test system: K-562 leukemia
TK-10 renal = test system: TK-10 renal
SN12C renal = test system: SN12C renal
MOLT-4 leukemia = test system: MOLT-4 leukemia
SF-539 CNS = test system: SF-539 CNS
M14 melanoma = test system: M14 melanoma
NCI-H23 lung = test system: NCI-H23 lung
DMS 273 small cell lung = test system: DMS 273 small cell lung
KM12 colon = test system: KM12 colon
IGROV1 ovarian = test system: IGROV1 ovarian
OVCAR-3 ovarian = test system: OVCAR-3 ovarian
MDA-MB-435 = test system: MDA-MB-435
SNB-19 CNS = test system: SNB-19 CNS
SK-OV-3 ovarian = test system: SK-OV-3 ovarian
BT-549 breast = test system: BT-549 breast
SK-MEL-5 melanoma = test system: SK-MEL-5 melanoma
HT29 colon = test system: HT29 colon
T-47D breast = test system: T-47D breast
PC-3 prostate = test system: PC-3 prostate
RXF 393 renal = test system: RXF 393 renal
A549 NSCLC = test system: A549 NSCLC
ACHN renal = test system: ACHN renal
CAKI-1 renal = test system: CAKI-1 renal
LOX IMVI melanoma = test system: LOX IMVI melanoma
M19-MEL melanoma = test system: M19-MEL melanoma
NCI-H226 lung = test system: NCI-H226 lung
HOP-92 NSCLC = test system: HOP-92 NSCLC
MDA-N = test system: MDA-N
UACC-62 melanoma = test system: UACC-62 melanoma
SK-MEL-2 melanoma = test system: SK-MEL-2 melanoma
RPMI-8226 leukemia = test system: RPMI-8226 leukemia
DU-145 prostate = test system: DU-145 prostate
HCT-15 colon = test system: HCT-15 colon
HCT-116 colon = test system: HCT-116 colon
OVCAR-8 ovarian = test system: OVCAR-8 ovarian
HS 578T breast = test system: HS 578T breast
HCC-2998 colon = test system: HCC-2998 colon
A498 renal = test system: A498 renal
SNB-75 CNS = test system: SNB-75 CNS
MALME-3M melanoma = test system: MALME-3M melanoma
CCRF-CEM leukemia = test system: CCRF-CEM leukemia
OVCAR-5 ovarian = test system: OVCAR-5 ovarian
U251 CNS = test system: U251 CNS
SF-268 CNS = test system: SF-268 CNS
MCF7 breast = test system: MCF7 breast
NCI-H522 lung = test system: NCI-H522 lung
SNB-78 CNS = test system: SNB-78 CNS
NCI-H460 lung = test system: NCI-H460 lung
DMS 114 small cell lung = test system: DMS 114 small cell lung
SK-MEL-28 melanoma = test system: SK-MEL-28 melanoma
UACC-257 melanoma = test system: UACC-257 melanoma
KM20L2 colon = test system: KM20L2 colon
COLO 205 colon = test system: COLO 205 colon
MDA-MB-231 breast = test system: MDA-MB-231 breast
NCI/ADR-RES ovarian = test system: NCI/ADR-RES ovarian
HOP-62 NSCLC = test system: HOP-62 NSCLC
SW-620 colon = test system: SW-620 colon
DLD-1 colon = test system: DLD-1 colon
HOP-18 NSCLC = test system: HOP-18 NSCLC
EKVX NSCLC = test system: EKVX NSCLC
SF-295 CNS = test system: SF-295 CNS
UO-31 renal = test system: UO-31 renal
HL-60(TB) leukemia = test system: HL-60(TB) leukemia
SR leukemia = test system: SR leukemia

For `COc1ccc2c(=O)oc3c(OC)cc(CCN(C)C)c4c(=O)oc1c2c34`, the TGI (LXFL 529 NSCLC) was 26 µM, the GI50 (786-0 renal) was 3660 nM and 762 nM and the TGI (786-0 renal) was 14.2 µM and 1.51 µM. For the same compound, the GI50 (OVCAR-4 ovarian) was 3.47 µM and 8.43 µM, the TGI (OVCAR-4 ovarian) was 12.3 µM and 16.1 µM and the TGI (K-562 leukemia) was 5.4 µM. For the same compound, the GI50 (TK-10 renal) was 20.2 µM and 8.68 µM, the TGI (TK-10 renal) was 37.1 µM and 16.7 µM and the TGI (SN12C renal) was 27.7 µM and 15.6 µM. For the same compound, the TGI (MOLT-4 leukemia) was 26.8 µM and 17.1 µM, the GI50 (SF-539 CNS) was 22.8 µM and 6.89 µM and the TGI (SF-539 CNS) was 37.5 µM and 14 µM. The TGI (M14 melanoma) was 31.2 µM and 18.2 µM, the TGI (NCI-H23 lung) was 32.7 µM and 17.5 µM and the TGI (DMS 273 small cell lung) was 31.5 µM. For the same compound, the GI50 (KM12 colon) was 18 µM and 6.41 µM, the TGI (KM12 colon) was 36 µM and 13.4 µM and the GI50 (IGROV1 ovarian) was 15.9 µM and 3.03 µM. For the same compound, the TGI (IGROV1 ovarian) was 29.6 µM and 11.5 µM, the TGI (OVCAR-3 ovarian) was 30 µM and 19.8 µM and the TGI (MDA-MB-435) was 16.1 µM. For the same compound, the TGI (SNB-19 CNS) was 29.2 µM and 21.4 µM, the GI50 (SK-OV-3 ovarian) was 19.5 µM and 8.47 µM and the TGI (SK-OV-3 ovarian) was 33.7 µM and 15.9 µM. For the same compound, the TGI (BT-549 breast) was 15.4 µM, the TGI (SK-MEL-5 melanoma) was 24.7 µM and 14.7 µM and the GI50 (HT29 colon) was 13.7 µM and 5.51 µM. The TGI (HT29 colon) was 27 µM and 12.6 µM, the TGI (T-47D breast) was 18 µM and the TGI (PC-3 prostate) was 29.4 µM. For the same compound, the GI50 (RXF 393 renal) was 18 µM and 7.95 µM, the TGI (RXF 393 renal) was 35.2 µM and 16.8 µM and the GI50 (A549 NSCLC) was 21.3 µM and 8.46 µM. The TGI (A549 NSCLC) was 37 µM and 20.2 µM, the GI50 (ACHN renal) was 14.8 µM and 5.71 µM and the TGI (ACHN renal) was 28.1 µM and 11.8 µM. The GI50 (CAKI-1 renal) was 17.3 µM and 8.46 µM, the TGI (CAKI-1 renal) was 31.6 µM and 15.4 µM and the GI50 (LOX IMVI melanoma) was 17 µM and 7.81 µM. The TGI (LOX IMVI melanoma) was 31.3 µM and 18 µM, the TGI (M19-MEL melanoma) was 28.1 µM and the TGI (NCI-H226 lung) was 33.2 µM and 50 µM. For the same compound, the GI50 (HOP-92 NSCLC) was 21.5 µM and 8.25 µM, the TGI (HOP-92 NSCLC) was 39.6 µM and 15.2 µM and the TGI (MDA-N) was 14.8 µM. The TGI (UACC-62 melanoma) was 31.7 µM and 16.6 µM, the TGI (SK-MEL-2 melanoma) was 33.1 µM and 29 µM and the GI50 (RPMI-8226 leukemia) was 18.1 µM and 8.54 µM. The TGI (RPMI-8226 leukemia) was 41.3 µM and 19.8 µM, the TGI (DU-145 prostate) was 15.8 µM and the GI50 (HCT-15 colon) was 16.6 µM and 5.11 µM. For the same compound, the TGI (HCT-15 colon) was 36.1 µM and 12.3 µM, the GI50 (HCT-116 colon) was 14.3 µM and 5.27 µM and the TGI (HCT-116 colon) was 27.9 µM and 11.9 µM. For the same compound, the TGI (OVCAR-8 ovarian) was 30.7 µM and 17.2 µM, the TGI (HS 578T breast) was 24 µM and the TGI (HCC-2998 colon) was 25.2 µM. For the same compound, the TGI (A498 renal) was 34.8 µM and 17.6 µM, the GI50 (SNB-75 CNS) was 16.4 µM and 8.17 µM and the TGI (SNB-75 CNS) was 31.5 µM and 17.2 µM. For the same compound, the TGI (MALME-3M melanoma) was 28.5 µM, the TGI (CCRF-CEM leukemia) was 3.5 µM and 3.06 µM and the TGI (OVCAR-5 ovarian) was 31.9 µM and 22.3 µM. For the same compound, the TGI (U251 CNS) was 27.6 µM and 19 µM, the TGI (SF-268 CNS) was 28.4 µM and 16.6 µM and the TGI (MCF7 breast) was 12.9 µM. The TGI (NCI-H522 lung) was 25.6 µM and 13.9 µM, the TGI (SNB-78 CNS) was 35.9 µM and the GI50 (NCI-H460 lung) was 13.8 µM and 2.4 µM. For the same compound, the TGI (NCI-H460 lung) was 29.9 µM and 9.03 µM, the TGI (DMS 114 small cell lung) was 24.9 µM and the GI50 (SK-MEL-28 melanoma) was 4250 nM and 1010 nM. The TGI (SK-MEL-28 melanoma) was 15.6 µM and 2.2 µM, the GI50 (UACC-257 melanoma) was 19.7 µM and 3.31 µM and the TGI (UACC-257 melanoma) was 38.7 µM and 10.3 µM. For the same compound, the TGI (KM20L2 colon) was 28.1 µM, the TGI (COLO 205 colon) was 17.4 µM and 22.1 µM and the TGI (MDA-MB-231 breast) was 16.1 µM. The TGI (NCI/ADR-RES ovarian) was 23.5 µM, the TGI (HOP-62 NSCLC) was 28.7 µM and the GI50 (SW-620 colon) was 14 µM and 5.86 µM. The TGI (SW-620 colon) was 28.1 µM and 17.4 µM, the TGI (DLD-1 colon) was 39.4 µM and the TGI (HOP-18 NSCLC) was 27.6 µM. The GI50 (EKVX NSCLC) was 17.8 µM and 7.55 µM, the TGI (EKVX NSCLC) was 34.9 µM and 15.9 µM and the GI50 (SF-295 CNS) was 15 µM and 6.99 µM. For the same compound, the TGI (SF-295 CNS) was 28.5 µM and 14.3 µM, the GI50 (UO-31 renal) was 17.3 µM and 8.48 µM and the TGI (UO-31 renal) was 31.1 µM and 15.6 µM. For the same compound, the GI50 (HL-60(TB) leukemia) was 10.7 µM and 1.84 µM and the TGI (HL-60(TB) leukemia) was 26.5 µM and 10.2 µM.

`[N-]=[N+]=NC1(c2ccccc2)C(=O)c2cccc3c2N(CCC3)C1=O` (stereo not given) gave a TGI (LXFL 529 NSCLC) of over 100 µM, a TGI (786-0 renal) of over 100 µM and a TGI (OVCAR-4 ovarian) of over 100 µM. The TGI (K-562 leukemia) was 89.4 µM, the TGI (MOLT-4 leukemia) was over 100 µM and the TGI (M14 melanoma) was over 100 µM. It also gave a TGI (NCI-H23 lung) of over 100 µM, a TGI (KM12 colon) of over 100 µM and a TGI (IGROV1 ovarian) of over 100 µM. It also gave a TGI (OVCAR-3 ovarian) of over 100 µM, a TGI (SNB-19 CNS) of over 100 µM and a TGI (SK-OV-3 ovarian) of over 100 µM. The TGI (HT29 colon) was over 100 µM, the TGI (RXF 393 renal) was over 100 µM and the TGI (ACHN renal) was over 100 µM. It also gave a TGI (M19-MEL melanoma) of over 100 µM, a TGI (HOP-92 NSCLC) of over 100 µM and a TGI (UACC-62 melanoma) of over 100 µM. For the same compound, the TGI (SK-MEL-2 melanoma) was over 100 µM, the TGI (RPMI-8226 leukemia) was over 100 µM and the TGI (SR leukemia) was over 100 µM. The TGI (A498 renal) was over 100 µM, the TGI (SNB-75 CNS) was over 100 µM and the TGI (OVCAR-5 ovarian) was over 100 µM. The TGI (U251 CNS) was over 100 µM, the TGI (SF-268 CNS) was over 100 µM and the TGI (NCI-H522 lung) was over 100 µM. It also gave a TGI (SNB-78 CNS) of over 100 µM, a TGI (NCI-H460 lung) of over 100 µM and a TGI (DMS 114 small cell lung) of over 100 µM. It also gave a TGI (SK-MEL-28 melanoma) of over 100 µM, a TGI (UACC-257 melanoma) of 82.7 µM and a TGI (KM20L2 colon) of over 100 µM. The TGI (COLO 205 colon) was over 100 µM, the TGI (HOP-62 NSCLC) was over 100 µM and the TGI (SF-295 CNS) was over 100 µM. It also gave a TGI (UO-31 renal) of 74.3 µM and a TGI (HL-60(TB) leukemia) of 64.5 µM.
